Measured values: patent US4609758A, “Phenoxyethylamine derivatives” (American Home Products Corporation, priority 1985, dated 1986)

Experiments:
[1] = tested on: synaptosomal uptake of serotonin (5-HT); assay: Inhibition of synaptosomal serotonin (14C-5-HT) uptake; assay type: biochemical; settings: synaptosomal uptake of 14C-5-HT, read-out: 5-HT uptake, inhibitory concentration at which the rate of uptake was reduced to 50 percent (IC50)
[2] = tested on: synaptosomal uptake of norepinephrine; assay: Inhibition of synaptosomal norepinephrine (3H-NE) uptake; assay type: biochemical; settings: synaptosomal uptake of 3H-NE, read-out: NE uptake, inhibitory concentration at which the rate of uptake was reduced to 50 percent (IC50)
muscarinic receptor = assay: Inhibition of 3H-QNB binding (QNB receptor binding assay); settings: for anticholinergic property reflected by inhibition of binding of the muscarinic receptor ligand 3H-QNB (in words): 3H-quinuclidinyl benzilate; for IC50 / Ki: inhibition of 3H-QNB binding

Row | SMILES | IC50 [1] [µM] | IC50 [2] [µM] | anticholinergic property reflected by inhibition of binding of the muscarinic receptor ligand 3H-QNB (in words) (muscarinic receptor) | IC50 (muscarinic receptor) [µM] | Ki (muscarinic receptor) [µM]
1 | COc1cccc(OC(CN(C)C)C2(O)CCCCCC2)c1 (centres unmarked) [Example 11, 1-[2-(Dimethylamino)-1-(3-methoxyphenoxy)ethyl]cycloheptanol] | 0.9 | 1.16 | – | – | –
3 | CN(C)CC(Oc1cccc(C(F)(F)F)c1)C1(O)CCCCC1 (centres unmarked) [Example 7, 1-[2-(dimethylamino)-1-(3-trifluoromethylphenoxy)ethyl]cyclohexanol] | 1.2 | 2.35 | – | – | –
4 | COc1ccc(OC(CN(C)C)C2(O)CCCCCC2)cc1 (centres unmarked) [Example 5, 1-[2-(Dimethylamino)-1-(4-methoxyphenoxy)ethyl]cycloheptanol] | 0.17 | 0.81 | – | – | –
5 | CN(C)CC(Oc1ccc(C(F)(F)F)cc1)C1(O)CCCCC1 (centres unmarked) [Example 8, 1-[2-Dimethylamino-1-(4-trifluoromethylphenoxy)ethyl]cyclohexanol] | 0.34 | 2.5 | – | – | –
6 | CN(C)CC(Oc1ccc(C(F)(F)F)cc1)C1(O)CCCCCC1 (centres unmarked) [Example 9, 1-[2-Dimethylamino-1-(4-trifluoromethylphenoxy)ethyl]cycloheptanol] | 0.49 | 3.78 | – | – | –
7 | CN(C)CC(Oc1ccc(Cl)cc1)C1(O)CCCCC1 (centres unmarked) [Example 1, 1-[1-(4-Chlorophenoxy)-2-(dimethylamino)ethyl]cyclohexanol] | 0.17 | 0.22 | essentially inactive | > 10 | –
8 | COc1ccc(OC(CN(C)C)C2(O)CCCC2)cc1 (centres unmarked) [Example 6, 1-[2-(dimethylamino)-1-(4-methoxyphenoxy)ethyl]cyclopentanol] | 0.64 | 3.14 | – | – | –
9 | CN(C)CC(Oc1ccc(Cl)cc1Cl)C1(O)CCCCC1 (centres unmarked) [Example 2, 1-[1-(2,4-Dichlorophenoxy)-2-(dimethylamino)ethyl]cyclohexanol] | 0.53 | 3.14 | essentially inactive | > 10 | –
10 | CN(C)CCCN1c2ccccc2CCc2ccccc21 [Imipramine, reference compound] | 0.12 | 0.26 | – | – | 0.037
11 | CN(C)CC(Oc1ccc(Cl)cc1Cl)C1(O)CCCC1 (centres unmarked) [Example 3, 8-[1-(2,4-Dichlorophenoxy)-2-(dimethylamino)ethyl]cyclopentanol] | 0.44 | 2.25 | – | – | –
12 | CNCCCN1c2ccccc2CCc2ccccc21 [DMI, reference compound] | – | 0.15 | – | – | […]
13 | COc1ccc(OC(CN(C)C)C2(O)CCCCC2)cc1 (centres unmarked) [Example 4, 1-[2-(Dimethylamino)-1-(4-methoxyphenoxy)ethyl]cyclohexanol] | 0.18 | 0.92 | – | – | –
14 | COc1cccc(OC(CN(C)C)C2(O)CCCC2)c1 (centres unmarked) [Example 12, 1-[2-(Dimethylamino)-1-(3-methoxyphenoxy)ethyl]cyclopentanol] | 0.97 | 1.58 | – | – | –
15 | CNCCC(Oc1ccc(C(F)(F)F)cc1)c1ccccc1 (centres unmarked) [Fluoxetine, reference compound] | – | 4.5 | – | – | –
16 | COc1cccc(OC(CN(C)C)C2(O)CCCCC2)c1 (centres unmarked) [Example 10, 1-[2-(Dimethylamino)-1-(3-methoxyphenoxy)ethyl]cyclohexanol] | 0.7 | 1.16 | – | – | –
